Results as given in paper PMC7614683, “A small molecule PI3Kα activator for cardioprotection and neuroregeneration” (Nature, 2023).

Molecular target: T1, full length p110α/p85α (Homo sapiens, UniProt P42336)
T1 construct: Full-length human p110α was expressed either in a complex with full-length human p85α (for HTS, biochemistry and HDX-MS); 6xHis tag followed by TEV protease site (N); host or cells: Spodoptera frugiperda Sf9, baculovirus
Test: HDX-MS
Format: binding
Experimental: Sample preparation: HDX-MS experiments were carried out as described previously. […] In total, three biological replicates, i.e. three separate protein preparations, each with exchange experiments carried out in triplicate were conducted. Data presented in the manuscript is a single biological replicate. Data acquisition and analysis were as follows: Each sample was thawed and injected onto an M-Class Acquity UPLC with HDX Technology (Waters) kept at 0.1°C. Proteins were digested in-line using an Enzymate Pepsin Column (Waters, #186007233) at 15°C for 2 min at 200 μl/min. Peptic peptides were then eluted onto an Acquity UPLC BEH C18 Column (Waters, #186002346) equilibrated in Pepsin-A buffer (0.1% formic acid) and separated using a 5-35% gradient of Pepsin-B buffer (0.1% formic acid, 99% acetonitrile) over 7 min at a flowrate of 40 μl/min. Data were collected on a Waters Cyclic IMS, with an electrospray ionisation source, from 50-2000 m/z. Data were collected in the HDMS^E mode. A single pass of the cyclic IMS was conducted. A “blank” sample of protein dilution buffer with quench was run between samples, and carry-over of peptides was routinely monitored. Five replicates were used to identify non-deuterated peptides. Criteria used to include peptides in the HDX-MS dataset were: minimum intensity 5000, minimum sequence length 5, maximum sequence length 25, a minimum of 3 fragment ions, a minimum of 0.1 products per amino acid, a minimum score of 6.62, a maximum MH+ Error of 10 ppm, identification in at least two datasets with a retention time RSD of less than 10%. Data was analysed using Protein Lynx Global Server (Waters) and DynamX (Waters). All peptides were manually inspected for EX1 kinetics and sufficient quality of the peptide envelope. Data quality, experiment design, and reporting of data meets the criteria as determined by the HDX-MS community. Uptake files were created using Baryonyx. Data are available via ProteomeXchange with identifier PXD037721.

[1] = PK3CA_HUMAN peptide 177-186, time point 1 of 5
[2] = PK3CA_HUMAN peptide 177-186, time point 2 of 5
[3] = PK3CA_HUMAN peptide 177-186, time point 3 of 5
[4] = PK3CA_HUMAN peptide 177-186, time point 4 of 5
[5] = PK3CA_HUMAN peptide 177-186, time point 5 of 5
[6] = PK3CA_HUMAN peptide 186-202, time point 1 of 5
[7] = PK3CA_HUMAN peptide 186-202, time point 2 of 5
[8] = PK3CA_HUMAN peptide 186-202, time point 3 of 5
[9] = PK3CA_HUMAN peptide 186-202, time point 4 of 5
[10] = PK3CA_HUMAN peptide 186-202, time point 5 of 5
[11] = PK3CA_HUMAN peptide 207-219, time point 1 of 5
[12] = PK3CA_HUMAN peptide 207-219, time point 2 of 5
[13] = PK3CA_HUMAN peptide 207-219, time point 3 of 5
[14] = PK3CA_HUMAN peptide 207-219, time point 4 of 5
[15] = PK3CA_HUMAN peptide 207-219, time point 5 of 5
[16] = PK3CA_HUMAN peptide 220-237, time point 1 of 5
[17] = PK3CA_HUMAN peptide 220-237, time point 2 of 5
[18] = PK3CA_HUMAN peptide 220-237, time point 3 of 5
[19] = PK3CA_HUMAN peptide 220-237, time point 4 of 5
[20] = PK3CA_HUMAN peptide 220-237, time point 5 of 5
[21] = PK3CA_HUMAN peptide 224-238, time point 1 of 5
[22] = PK3CA_HUMAN peptide 224-238, time point 2 of 5
[23] = PK3CA_HUMAN peptide 224-238, time point 3 of 5
[24] = PK3CA_HUMAN peptide 224-238, time point 4 of 5
[25] = PK3CA_HUMAN peptide 224-238, time point 5 of 5
[26] = PK3CA_HUMAN peptide 238-250, time point 1 of 5
[27] = PK3CA_HUMAN peptide 238-250, time point 2 of 5
[28] = PK3CA_HUMAN peptide 238-250, time point 3 of 5
[29] = PK3CA_HUMAN peptide 238-250, time point 4 of 5
[30] = PK3CA_HUMAN peptide 238-250, time point 5 of 5
[31] = PK3CA_HUMAN peptide 238-259, time point 1 of 5
[32] = PK3CA_HUMAN peptide 238-259, time point 2 of 5
[33] = PK3CA_HUMAN peptide 238-259, time point 3 of 5
[34] = PK3CA_HUMAN peptide 238-259, time point 4 of 5
[35] = PK3CA_HUMAN peptide 238-259, time point 5 of 5
[36] = PK3CA_HUMAN peptide 241-250, time point 1 of 5
[37] = PK3CA_HUMAN peptide 241-250, time point 2 of 5

T1 sequence (P42336 whole entry): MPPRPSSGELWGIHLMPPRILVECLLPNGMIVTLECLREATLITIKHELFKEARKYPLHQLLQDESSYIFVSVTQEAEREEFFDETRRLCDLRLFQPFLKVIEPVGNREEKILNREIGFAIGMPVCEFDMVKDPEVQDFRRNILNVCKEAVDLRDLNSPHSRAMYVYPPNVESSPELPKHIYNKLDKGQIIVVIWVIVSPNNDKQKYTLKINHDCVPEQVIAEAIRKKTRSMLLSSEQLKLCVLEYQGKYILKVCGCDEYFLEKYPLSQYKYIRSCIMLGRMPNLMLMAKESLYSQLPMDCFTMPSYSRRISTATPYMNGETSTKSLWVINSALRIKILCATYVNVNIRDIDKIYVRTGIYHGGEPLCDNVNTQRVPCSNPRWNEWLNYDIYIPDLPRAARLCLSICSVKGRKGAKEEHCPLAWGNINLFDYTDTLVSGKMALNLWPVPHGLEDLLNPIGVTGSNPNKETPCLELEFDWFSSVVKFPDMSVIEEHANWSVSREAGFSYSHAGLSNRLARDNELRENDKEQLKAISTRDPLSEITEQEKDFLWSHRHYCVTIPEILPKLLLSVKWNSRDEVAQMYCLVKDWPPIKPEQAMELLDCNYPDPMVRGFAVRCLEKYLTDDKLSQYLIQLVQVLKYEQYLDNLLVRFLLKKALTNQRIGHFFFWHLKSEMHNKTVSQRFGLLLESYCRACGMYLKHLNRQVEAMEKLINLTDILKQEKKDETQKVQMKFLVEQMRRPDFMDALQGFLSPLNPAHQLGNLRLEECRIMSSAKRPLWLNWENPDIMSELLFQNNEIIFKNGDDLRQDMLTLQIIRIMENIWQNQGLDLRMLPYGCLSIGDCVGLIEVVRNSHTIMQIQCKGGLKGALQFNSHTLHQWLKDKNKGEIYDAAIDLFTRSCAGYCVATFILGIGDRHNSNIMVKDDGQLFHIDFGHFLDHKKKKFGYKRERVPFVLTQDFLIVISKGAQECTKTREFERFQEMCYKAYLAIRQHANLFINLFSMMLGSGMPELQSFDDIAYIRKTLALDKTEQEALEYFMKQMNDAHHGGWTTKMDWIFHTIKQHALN
T1 sequence (P27986 whole entry partner): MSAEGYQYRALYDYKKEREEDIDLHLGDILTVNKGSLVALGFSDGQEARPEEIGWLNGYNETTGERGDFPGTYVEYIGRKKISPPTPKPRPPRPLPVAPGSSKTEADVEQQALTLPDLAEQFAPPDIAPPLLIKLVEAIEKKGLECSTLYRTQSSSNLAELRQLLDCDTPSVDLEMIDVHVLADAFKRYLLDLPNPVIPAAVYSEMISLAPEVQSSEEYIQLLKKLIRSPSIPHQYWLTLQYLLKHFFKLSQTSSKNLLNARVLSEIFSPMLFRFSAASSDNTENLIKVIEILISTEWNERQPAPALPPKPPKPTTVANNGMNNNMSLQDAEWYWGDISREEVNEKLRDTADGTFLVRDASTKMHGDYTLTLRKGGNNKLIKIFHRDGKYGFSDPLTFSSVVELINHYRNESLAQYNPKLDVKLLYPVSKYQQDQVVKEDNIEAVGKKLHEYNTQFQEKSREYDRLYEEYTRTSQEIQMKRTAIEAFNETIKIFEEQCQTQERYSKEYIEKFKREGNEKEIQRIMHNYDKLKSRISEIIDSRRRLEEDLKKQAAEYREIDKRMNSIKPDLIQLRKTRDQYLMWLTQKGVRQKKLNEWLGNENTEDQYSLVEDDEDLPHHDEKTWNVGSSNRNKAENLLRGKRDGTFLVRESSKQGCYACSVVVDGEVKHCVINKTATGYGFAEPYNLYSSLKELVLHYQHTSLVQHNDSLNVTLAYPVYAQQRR

SMILES: CCN1CCN(c2ccc(Nc3cc(Nc4cccc5c4N(C(C)=O)CC5)ccn3)cc2)CC1 [Compound 1938]
- changes in HDX-MS protection of PI3Kα (250 μM 1938 or 5 μM BYL719): protection of a region in the C-terminus of the kinase domain consisting of amino acids (AA) 1002-1016 of p110α
- HDX difference (%D) [1]: -1.1%
- HDX difference (Da) [1]: -0.10 Da
- HDX difference (%D) [2]: 0.188%
- HDX difference (Da) [2]: 0.0169 Da
- HDX difference (%D) [3]: 0.0654%
- HDX difference (Da) [3]: 0.00589 Da
- HDX difference (%D) [4]: -0.325%
- HDX difference (Da) [4]: -0.03 Da
- HDX difference (%D) [5]: -0.186%
- HDX difference (Da) [5]: -0.0168 Da
- HDX difference (%D) [6]: -0.741%
- HDX difference (Da) [6]: -0.10 Da
- HDX difference (%D) [7]: 0.268%
- HDX difference (Da) [7]: 0.0349 Da
- HDX difference (%D) [8]: 0.253%
- HDX difference (Da) [8]: 0.0328 Da
- HDX difference (%D) [9]: -0.11%
- HDX difference (Da) [9]: -0.0143 Da
- HDX difference (%D) [10]: -0.0482%
- HDX difference (Da) [10]: -0.00626 Da
- HDX difference (%D) [11]: -0.6%
- HDX difference (Da) [11]: -0.07 Da
- HDX difference (%D) [12]: 0.1%
- HDX difference (Da) [12]: 0.0108 Da
- HDX difference (%D) [13]: 0.0043%
- HDX difference (Da) [13]: 0.000474 Da
- HDX difference (%D) [14]: -0.136%
- HDX difference (Da) [14]: -0.0149 Da
- HDX difference (%D) [15]: -0.4%
- HDX difference (Da) [15]: -0.0435 Da
- HDX difference (%D) [16]: -0.3%
- HDX difference (Da) [16]: -0.0451 Da
- HDX difference (%D) [17]: 0.0936%
- HDX difference (Da) [17]: 0.014 Da
- HDX difference (%D) [18]: 0.319%
- HDX difference (Da) [18]: 0.05 Da
- HDX difference (%D) [19]: -0.0933%
- HDX difference (Da) [19]: -0.014 Da
- HDX difference (%D) [20]: -0.152%
- HDX difference (Da) [20]: -0.0229 Da
- HDX difference (%D) [21]: -0.8%
- HDX difference (Da) [21]: -0.0951 Da
- HDX difference (%D) [22]: 0.43%
- HDX difference (Da) [22]: 0.05 Da
- HDX difference (%D) [23]: 0.056%
- HDX difference (Da) [23]: 0.00672 Da
- HDX difference (%D) [24]: 0.37%
- HDX difference (Da) [24]: 0.0444 Da
- HDX difference (%D) [25]: 0.9%
- HDX difference (Da) [25]: 0.11 Da
- HDX difference (%D) [26]: -0.317%
- HDX difference (Da) [26]: -0.038 Da
- HDX difference (%D) [27]: 0.158%
- HDX difference (Da) [27]: 0.019 Da
- HDX difference (%D) [28]: 0.185%
- HDX difference (Da) [28]: 0.0222 Da
- HDX difference (%D) [29]: -0.357%
- HDX difference (Da) [29]: -0.0429 Da
- HDX difference (%D) [30]: 0.02%
- HDX difference (Da) [30]: 0.00239 Da
- HDX difference (%D) [31]: -0.7%
- HDX difference (Da) [31]: -0.15 Da
- HDX difference (%D) [32]: 0.262%
- HDX difference (Da) [32]: 0.0549 Da
- HDX difference (%D) [33]: 0.265%
- HDX difference (Da) [33]: 0.0556 Da
- HDX difference (%D) [34]: -0.134%
- HDX difference (Da) [34]: -0.0282 Da
- HDX difference (%D) [35]: -0.22%
- HDX difference (Da) [35]: -0.0463 Da
- HDX difference (%D) [36]: -0.43%
- HDX difference (Da) [36]: -0.04 Da
- HDX difference (%D) [37]: 0.2%
- HDX difference (Da) [37]: 0.0181 Da
